Literature values in US8569299B2, “Prolylcarboxypeptidase inhibitors” (Merck Sharp & Dohme Corp, priority 2010, dated 2013).
Where two headings read alike, the source gives them in different places. Where no end group is shown, it is not given here.

What was measured:
[1] = in vivo
[2] = intracerebroventricular, rats
[3] = systemic administration, obese leptin deficient mice
[4] = overnight fasted animals, 2.5 ug

| Molecule | weight loss of body weight for drug compared to placebo [1] | other results |
| --- | --- | --- |
| CCCCCCCCCCC[C@@H](C[C@@H]1OC(=O)[C@H]1CCCCCC)OC(=O)[C@H](CC(C)C)NC=O [orlistat] | 5%-10% | – |
| CC(C)CC(N(C)C)C1(c2ccc(Cl)cc2)CCC1 (stereo not shown) [sibutramine] | 5%-10% | – |
| CCN[C@@H](C)Cc1cccc(C(F)(F)F)c1 [dexfenfluramine] | 5%-10% | – |
| CC(C)(N)Cc1ccccc1 [phentermine] | 5%-10% | – |
| t-butyl carbamate-prolyl prolinal [BPP] | – | overnight food intake [2]: suppression of overnight food intake; overnight food intake [3]: suppression of overnight food intake |
| alpha-melanocyte-stimulating hormone (SYSMEHFRWGKPV; ends and bridges not checked; UniProt P01189 138-150, looked up) [α-MSH1-13, peptide hormone derived from POMC, substrate of PRCP] | – | reduction in food intake relative to control animals [4]: 40% |
